Measured values taken from ChEMBL document CHEMBL4190372, “Discovery of a Novel Oral Glucocorticoid Receptor Modulator (AZD9567) with Improved Side Effect Profile” (J Med Chem, 2018).

Tests used:
[1] = target: T1, Glucocorticoid receptor (Homo sapiens, UniProt P04150); test: Displacement of fluormone RED from human full length glucocorticoid receptor after 4 hrs by fluorescence polarization assay
T1 sequence (P04150 whole entry): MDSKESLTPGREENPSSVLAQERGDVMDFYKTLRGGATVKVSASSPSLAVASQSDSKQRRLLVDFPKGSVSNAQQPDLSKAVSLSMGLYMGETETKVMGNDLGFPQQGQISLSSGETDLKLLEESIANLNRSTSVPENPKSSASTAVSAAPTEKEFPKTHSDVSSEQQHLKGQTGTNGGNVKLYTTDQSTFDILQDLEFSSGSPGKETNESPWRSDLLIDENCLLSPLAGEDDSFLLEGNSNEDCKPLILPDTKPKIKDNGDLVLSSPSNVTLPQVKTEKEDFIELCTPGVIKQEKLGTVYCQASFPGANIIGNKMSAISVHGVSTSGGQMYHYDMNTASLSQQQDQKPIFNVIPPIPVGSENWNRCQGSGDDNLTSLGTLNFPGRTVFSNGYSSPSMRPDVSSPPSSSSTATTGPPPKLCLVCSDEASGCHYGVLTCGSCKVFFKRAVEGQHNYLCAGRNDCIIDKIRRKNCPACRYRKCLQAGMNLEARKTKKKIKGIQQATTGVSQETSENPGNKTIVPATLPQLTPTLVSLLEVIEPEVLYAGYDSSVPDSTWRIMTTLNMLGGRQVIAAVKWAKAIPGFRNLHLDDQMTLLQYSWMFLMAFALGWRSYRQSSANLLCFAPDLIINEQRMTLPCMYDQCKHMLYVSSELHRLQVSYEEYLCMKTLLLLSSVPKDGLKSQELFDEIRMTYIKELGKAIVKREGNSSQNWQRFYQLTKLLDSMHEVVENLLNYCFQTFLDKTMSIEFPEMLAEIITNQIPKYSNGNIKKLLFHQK

[2] = target: T2, Mineralocorticoid receptor (Homo sapiens, UniProt P08235); test: Displacement of [3H]-aldosterone from human mineralocorticoid receptor LBD (729 to 984 residues) after 1 hr by scintillation proximity assay
T2 sequence (P08235 whole entry): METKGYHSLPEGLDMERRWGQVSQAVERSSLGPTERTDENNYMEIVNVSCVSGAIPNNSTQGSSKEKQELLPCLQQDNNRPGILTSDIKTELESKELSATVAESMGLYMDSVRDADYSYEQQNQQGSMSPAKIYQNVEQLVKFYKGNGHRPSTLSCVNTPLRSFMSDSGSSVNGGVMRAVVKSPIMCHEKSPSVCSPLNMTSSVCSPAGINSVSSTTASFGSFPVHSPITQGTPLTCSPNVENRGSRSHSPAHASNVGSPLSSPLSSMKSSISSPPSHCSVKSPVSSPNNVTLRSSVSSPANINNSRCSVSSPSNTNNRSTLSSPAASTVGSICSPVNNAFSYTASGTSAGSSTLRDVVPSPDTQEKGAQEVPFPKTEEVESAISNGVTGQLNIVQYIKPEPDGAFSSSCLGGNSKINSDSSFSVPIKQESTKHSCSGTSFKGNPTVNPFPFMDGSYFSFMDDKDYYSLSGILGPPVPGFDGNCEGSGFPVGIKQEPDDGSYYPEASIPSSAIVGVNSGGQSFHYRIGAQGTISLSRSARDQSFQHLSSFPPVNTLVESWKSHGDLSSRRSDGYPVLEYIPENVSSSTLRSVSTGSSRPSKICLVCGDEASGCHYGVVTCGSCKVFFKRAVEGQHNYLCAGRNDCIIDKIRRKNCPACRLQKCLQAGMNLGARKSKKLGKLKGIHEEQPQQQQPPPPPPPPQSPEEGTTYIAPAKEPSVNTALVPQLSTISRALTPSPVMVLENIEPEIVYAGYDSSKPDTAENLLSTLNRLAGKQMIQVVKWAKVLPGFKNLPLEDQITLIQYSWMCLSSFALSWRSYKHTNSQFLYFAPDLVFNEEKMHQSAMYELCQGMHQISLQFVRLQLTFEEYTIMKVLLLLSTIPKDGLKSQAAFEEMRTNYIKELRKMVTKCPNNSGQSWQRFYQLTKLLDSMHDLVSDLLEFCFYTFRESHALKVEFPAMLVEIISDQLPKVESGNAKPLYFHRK

[3] = Clearance in Han-Wistar rat at 0.8 mg/kg, iv; format: ADME, organism-based; settings: in vivo
[4] = Oral bioavailability in Beagle dog at 0.5 mg/kg; format: ADME, organism-based, Canis lupus familiaris; settings: in vivo
[5] = Clearance in Beagle dog at 0.5 mg/kg, po; format: ADME, organism-based, Canis lupus familiaris; settings: in vivo
[6] = target: T3, Glucocorticoid receptor (Rattus norvegicus, UniProt P06536); test: Modulation of glucocorticoid receptor in rat whole blood
T3 sequence (P06536 whole entry): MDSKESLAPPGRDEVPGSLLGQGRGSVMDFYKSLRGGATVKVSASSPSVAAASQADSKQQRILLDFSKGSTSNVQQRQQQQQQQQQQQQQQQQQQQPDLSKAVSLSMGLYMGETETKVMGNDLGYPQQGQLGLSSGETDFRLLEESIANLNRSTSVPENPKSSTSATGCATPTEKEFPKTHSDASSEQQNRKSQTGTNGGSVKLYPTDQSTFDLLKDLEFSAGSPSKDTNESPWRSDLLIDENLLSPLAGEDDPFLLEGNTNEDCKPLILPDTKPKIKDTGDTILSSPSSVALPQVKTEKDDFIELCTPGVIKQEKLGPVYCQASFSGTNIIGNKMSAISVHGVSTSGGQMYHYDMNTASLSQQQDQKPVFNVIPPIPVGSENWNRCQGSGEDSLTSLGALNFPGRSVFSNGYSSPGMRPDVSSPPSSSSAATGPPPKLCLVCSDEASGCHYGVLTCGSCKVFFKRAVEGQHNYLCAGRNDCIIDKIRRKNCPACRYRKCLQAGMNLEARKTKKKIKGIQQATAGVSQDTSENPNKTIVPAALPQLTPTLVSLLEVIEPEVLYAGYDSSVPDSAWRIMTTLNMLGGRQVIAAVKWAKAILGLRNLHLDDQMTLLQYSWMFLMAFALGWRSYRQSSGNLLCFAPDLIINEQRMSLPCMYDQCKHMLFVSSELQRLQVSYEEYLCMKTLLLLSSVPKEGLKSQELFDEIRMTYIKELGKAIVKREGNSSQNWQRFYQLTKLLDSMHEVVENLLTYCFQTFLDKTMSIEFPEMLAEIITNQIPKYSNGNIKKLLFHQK

[7] = system: Rattus norvegicus; test: Antiinflammatory activity in streptococcal cell wall reactivation Lewis rat model assessed as reduction of joint swelling at 0.3 mg/kg administered once daily for 8 days by oral gavage starting 1 day prior to streptococcal cell wall challenge measured during 6 days post challenge relative to control; format: functional; set-up: scale not given: the % may be the effect or the level left

CC(C)[C@H](NC(=O)C(C)(F)F)[C@H](Oc1ccc2c(cnn2-c2ccc(=O)n(C)c2)c1)c1ccccc1 [MIZACORAT] gave an IC50 [1] of 3.8 nM, an IC50 [2] of over 38000 nM and a clearance [3] of 4.5 mL/min/kg. The bioavailability [4] was 48%, the CL/F [5] was 3.2 mL/min/kg and the IC50 [6] was 19 nM. For the same compound, the Activity [7] was 66%.
